Test [1] relates to PC-3-Luc prostate cancer xenograft. The test is described as follows: PC-3-Luc prostate cancer xenograft model. It counts as in vivo, BALB/c athymic nude mice. The note with it: γ-T3 50 mg/kg/day, Docetaxel 7.5 mg/kg/week; by day 14th after start of treatment; control 620±10. The procedure:
4.1.3 Establishment of the PC-3 prostate cancer xenograft model—Bioluminescent PC-3-Luc human prostate cancer cell line were generated according to known methods. Briefly, cDNA encoding the luciferase gene was cloned into the pLenti-6/V5. The construct was co-transfected with the packaging mix into HEK293 and lentivirus were collected and used for infecting PC-3 cells. Transfectants were obtained as a pool (PC-3-Luc) by selection with 10 μg/mL of Blasticidine for 1 week. The animal experimental protocol was approved by NACLAR (National Advisory Committee for Laboratory Animal Research) Guideline of Singapore for proper and humane use of animals. Male BALB/c athymic nude mice (4-5 weeks old, 18-22 g) were purchased from The Jackson Laboratory (Bar Harbor, Me., USA). […]
Nude mice bearing similar tumor sizes of about 100 mm^3 (after 2 weeks inoculation) were selected and randomly divided into three groups (n=5 per group); control (DMSO as vehicle), γ-T3 (50 mg/kg/d) and combination treatment of γ-T3 and Docetaxel (50 mg of γ-T3/kg/d and 7.5 mg of Docetaxel/kg/wk). The mice were weighed as daily basic and the tumors were measured using a Digital Carbon Fiber Caliper (Fisher scientific, Pittsburgh, Pa.) at the same time. The tumor volume was calculated as 4/3*π*(mean diameter/2)^3. […]

Test [2] concerns MDA-MB-231 cells. The experiment in a line: Matrigel-invasion assay, MDA-MB-231 cells. It counts as cell-based, human. The conditions noted are these: MDA-MB-231, 24 hrs. The procedure:
1.1.4 Matrigel-invasion assay—Matrigel-invasion assay was performed according to a previously published method with modifications. Briefly, cells were pre-incubated in a serum-free RPMI 1640 medium with or without γ-T3 isomers for 24 hrs. Cells (2.5×10^5) resuspended in 500 μl of serum-free RPMI 1640 containing 0.1% bovine serum albumin (BSA) were then added to the upper chamber of a 8 μm pore size insert (Millipore, Bedford, Mass.) manually coated with Matrigel (0.5 mg/ml) (BD Bioscience, Bedford, Mass.). Five hundred μl of invasion buffer containing fibronectin (10 μg/ml) and RPMI 1640 supplemented with 10% FCS were added in the lower chamber as a chemo-attractant. Cells were incubated at 37° C. for 24 hrs in 5% CO2 humidified conditions. At the end of incubation period, inserts were stained with Diff-Quick staining solution (Fischer Scientific). Non-invaded cells on the inside of the insert were scraped off with a cotton swab. Cell invasions were then examined by a phase-contrast microscope. The invaded cells were extracted using extraction buffer (Millipore, Bedford, Mass.) and the cell number was estimated based on absorbance at 595 nm.
3.1.7 Flow cytometry was carried out as described above under item 1.1.3. Matrigel-invasion assay was carried out as described above under item 1.1.4. Western blotting was carried out as described above under item 1.1.5.

Molecules are shown by their SMILES.

Turning to `CC(C)=CCC/C(C)=C/CC/C(C)=C/CCC1(C)CCc2cc(O)c(C)c(C)c2O1` (centres unmarked) [γ-T3, 7,8-dimethyltocotrienol], the tumor volume in test [1] stood at 300±48 mm^3. Further, the “invasion capability compared to untreated control” value in test [2] is “at least 2 -time lower”.

The record behind these values is patent US20110195910A1, “USE OF TOCOTRIENOL COMPOSITION FOR THE PREVENTION OF CANCER” (DAVOS LIFE SCIENCE PTE. LTD., priority 2008, published 2011).
